Values of other authors, collected in patent publication US20110091544A1 (priority 2009, published 2011).
Where two headings read alike, the source gives them in different places.

Tests used:
[1] = 250 mcg or 375 mcg sublingual
[2] = test system: healthy young subjects and healthy elderly subjects; conditions: 125 mcg and 250 mcg
dental outpatients = conditions: in vivo
[3] = not given; remark: listed apart in the source
[4] = test system: 61-70 year old patients scheduled for ophthalmic surgery; conditions: 200 mcg sublingual
healthy children = conditions: oral 0.025 mg/kg, children aged 6 to 9 years
acute seizures = conditions: nasal
[5] = test system: children scheduled for day surgery
[6] = test system: pediatric patients undergoing outpatient surgery; conditions: in vivo
[7] = 0.2 mg/kg; 30 min after premedication; children
[8] = not given; remark: listed apart in the source
patients = conditions: 7.5 mg; at 30 and 60 min after administration

In the case of `Cc1nnc2n1-c1ccc(Cl)cc1C(c1ccccc1Cl)=NC2` [triazolam, 8-chloro-6-(o-chlorophenyl)-1-methyl-4H-s-triazolo-[4,3-alpha][1,4]benzodiazepine], the “Cmax, range” value ([1]; children) is listed as 4.0 to 8.2 ng/mL, the “Tmax, range” value ([1]; children) is listed as 0.5 to 2 h and the “elimination half-life, range” value ([1]; children) is listed as 0.85 to 2.33 h. The Cmax ([1]; children 64-98 months old, mean+/−SD) was 4.9 ± 2.0 ng/mL, the Tmax ([1]; children, mean+/−SD) was 1.25 ± 0.533 h and the elimination half-life ([1]; children, mean+/−SD) was 1.52 ± 0.533 h. The “increase in Cmax” value (elderly versus young adults) was 50%, the Tmax (no change elderly versus young adults) was 0.9 h and the plasma half-life (orally administered) was 1.5 to 5.5 h. The “higher peak plasma level” value (sublingual compared with oral administration) was 20%, the “sedation and psychomotor performance, healthy elderly versus young persons at the same dose” value [2] was “greater degree of sedation and greater impairment of psychomotor performance” and the higher bioavailability (dental outpatients) was 28%. The “anxiety and pain at 15 minutes intraoperatively” value (dental outpatients; po) was “significantly less anxiety and pain”, the elimination half-life ([3]; 500 mcg oral) was 3.7 h and the “mean total area under the curve” value ([3]; 500 mcg oral) was 22.6 ng·h/mL. For the same molecule, the peak plasma concentration ([3]; 500 mcg oral) was 3.9 ng/mL, the “time of peak concentration” value ([3]; 500 mcg oral) was 1.25 h and the elimination half-life ([3]; 500 mcg sublingual) was 4.1 h. The “mean total area under the curve” value ([3]; 500 mcg sublingual) was 28.9 ng·h/mL, the peak plasma concentration ([3]; 500 mcg sublingual) was 4.7 ng/mL and the “time of peak concentration” value ([3]; 500 mcg sublingual) was 1.22 h. For the same molecule, the “bioavailability greater than oral” value ([3]; 500 mcg sublingual versus oral, average) was 28%, the “depth of sedation compared with 10 mg oral diazepam” value [4] was “deeper sedation” and the “time at which sedation developed after administration” value [4] was 60 to 90 min. The “time to peak plasma concentration” value (healthy children) was 74 ± 25 min and the peak plasma concentration (healthy children; mean+/−SD) was 8.5 ± 3.0 ng/mL.
In the case of `Cc1ncc2n1-c1ccc(Cl)cc1C(c1ccccc1F)=NC2` [midazolam, 8-chloro-6-(2-fluorophenyl)-1-methyl-4H-imidazo[1,5-a][1,4]benzodiazepine], the “treatment of acute seizures” value (acute seizures) is given as “effective”, the “children showing satisfactory sedation at 15 min after administration” value (shortened to “children showing satisfactory sedation”) ([5]; 0.25 mg/kg sublingual, P=0.02) is given as 28% and the “children showing satisfactory sedation” value ([5]; 0.5 mg/kg sublingual, P<0.001) is given as 52%. For the same molecule, the “children showing satisfactory sedation” value ([5]; 0.75 mg/kg sublingual, P<0.001) was 64%, the “children who had not previously cried who cried on administration” value [6] was 71% and the “patients who experienced nasal irritation” value [6] was 20 patients. For the same molecule, the “midazolam level, sublingual group versus nasal group” value [7] was “statistically significantly higher”, the maximum plasma concentrations ([8]; 15 mg oral dose) was 70 to 120 ng/mL and the “time to maximum plasma concentrations” value ([8]; 15 mg oral dose) was “within one hour”. For the same molecule, the “prolongation of plasma half-life” value ([8]; adults greater than 60 years) was “up to 3 times”, the plasma half-life ([8]; orally administered) was 1.5 to 5 h and the oral bioavailability ([8]; with a broad range) was “approximately 36%”. The “sedation scores, sublingual group versus oral group” value (patients) was “higher”.
